Test results reported in article PMC9541272, “Carba Analogues of Flupirtine and Retigabine with Improved Oxidation Resistance and Reduced Risk of Quinoid Metabolite Formation” (Chemmedchem, 2022).
Where two headings read alike, the source gives them in different places.

Columns and labels:
[1] = LogD7.4 estimation by HPLC-based method; assay type: physicochemical; details: for logD7.4 (single determination): calculated from retention time with one calibration function (A–F)
Description: The logarithm of the capacity factors of the reference substances was then plotted against the corresponding logP values taken from the mentioned guideline to obtain a calibration function. For non‐ionizable compounds like the reference substances used for calibration, logP values can be considered equivalent to the logD 7.4 values. To obtain a reference mixture, 2 mg of the reference substances were each dissolved in 1 mL of methanol, and 50 μL aliquots of each reference solution were subsequently combined. The reference mixture was measured before and after the substances to be tested, and the mean retention time from both measurements was used to calculate the calibration function. The calibration function was then used to determine the logD 7.4 values from the corresponding retention times for each substance to be tested. The compounds of interest were injected as a solution in methanol (2 mg/mL), and the retention time was determined as the mean value from two measurements.

[2] = Cyclic voltammetry, anodic peak potential (oxidizability); assay type: physicochemical; details: 0.1 M Tris‐HCl buffer pH 7.4, −0.5 to 1.0 V, sweep rate 0.1 V/s, –[b] = no oxidation observed in the specified potential range
[3] = system: TAMH mouse liver cell line
[4] = system: HEP‐G2 human hepatoma cell line
KV7.2/3 channel = KV7.2/3 channel (Homo sapiens, UniProt O43525+O43526); assay: KV7.2/3 channel opening activity, thallium-flux FLIPR Potassium Assay in HEK-293 cells overexpressing KV7.2/3; design: Emax: dose or concentration left out as unconfirmed; details: for Emax: HEK293E, read-out: Efficacy
KV7.2/3 channel, sequence (O43525 whole entry): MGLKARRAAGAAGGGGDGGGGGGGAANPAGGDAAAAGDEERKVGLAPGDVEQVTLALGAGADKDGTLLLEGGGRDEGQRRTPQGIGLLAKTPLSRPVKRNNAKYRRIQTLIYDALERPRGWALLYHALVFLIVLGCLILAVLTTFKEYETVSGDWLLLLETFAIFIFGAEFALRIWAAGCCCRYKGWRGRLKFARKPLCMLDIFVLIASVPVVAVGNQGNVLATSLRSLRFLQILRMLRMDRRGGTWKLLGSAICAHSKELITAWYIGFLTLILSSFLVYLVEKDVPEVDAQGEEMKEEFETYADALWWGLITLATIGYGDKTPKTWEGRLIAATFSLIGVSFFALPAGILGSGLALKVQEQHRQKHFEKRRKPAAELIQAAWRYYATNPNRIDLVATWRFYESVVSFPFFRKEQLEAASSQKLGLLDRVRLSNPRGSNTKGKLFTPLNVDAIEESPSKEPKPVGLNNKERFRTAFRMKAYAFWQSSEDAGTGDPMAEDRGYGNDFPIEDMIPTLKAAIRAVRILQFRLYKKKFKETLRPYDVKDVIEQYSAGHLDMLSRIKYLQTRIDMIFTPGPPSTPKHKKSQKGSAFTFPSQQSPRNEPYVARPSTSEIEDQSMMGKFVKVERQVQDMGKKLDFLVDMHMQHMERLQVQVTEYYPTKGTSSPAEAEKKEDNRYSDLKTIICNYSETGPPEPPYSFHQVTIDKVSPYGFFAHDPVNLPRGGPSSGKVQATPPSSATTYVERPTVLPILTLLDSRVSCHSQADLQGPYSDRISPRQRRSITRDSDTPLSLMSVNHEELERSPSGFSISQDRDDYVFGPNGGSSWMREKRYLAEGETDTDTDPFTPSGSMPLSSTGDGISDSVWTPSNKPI
KV7.2/3 channel, sequence (O43526 whole entry): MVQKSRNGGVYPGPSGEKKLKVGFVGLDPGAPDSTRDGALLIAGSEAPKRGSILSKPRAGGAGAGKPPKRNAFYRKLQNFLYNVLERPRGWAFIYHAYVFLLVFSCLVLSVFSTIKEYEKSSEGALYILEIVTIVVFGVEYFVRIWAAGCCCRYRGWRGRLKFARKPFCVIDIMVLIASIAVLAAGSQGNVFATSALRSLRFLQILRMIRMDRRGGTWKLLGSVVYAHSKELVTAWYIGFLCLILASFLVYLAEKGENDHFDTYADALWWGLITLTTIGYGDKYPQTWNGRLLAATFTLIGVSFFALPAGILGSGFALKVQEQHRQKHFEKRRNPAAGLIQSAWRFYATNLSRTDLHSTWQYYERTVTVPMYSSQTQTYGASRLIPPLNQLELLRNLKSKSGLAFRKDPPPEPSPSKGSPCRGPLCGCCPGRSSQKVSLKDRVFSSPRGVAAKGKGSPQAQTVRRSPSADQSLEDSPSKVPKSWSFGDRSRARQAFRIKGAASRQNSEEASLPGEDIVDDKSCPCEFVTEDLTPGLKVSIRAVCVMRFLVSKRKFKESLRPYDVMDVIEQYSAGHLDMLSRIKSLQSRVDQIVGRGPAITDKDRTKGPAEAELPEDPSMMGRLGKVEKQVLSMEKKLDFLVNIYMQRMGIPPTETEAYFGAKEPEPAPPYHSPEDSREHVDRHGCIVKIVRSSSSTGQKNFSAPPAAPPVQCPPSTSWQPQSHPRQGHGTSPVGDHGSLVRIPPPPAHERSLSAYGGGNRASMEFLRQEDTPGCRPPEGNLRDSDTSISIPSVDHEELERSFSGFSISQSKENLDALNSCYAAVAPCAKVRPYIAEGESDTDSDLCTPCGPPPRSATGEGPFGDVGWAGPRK

[5] = pH 7.4, calculated from retention time with one calibration function (A–F), Table S7, read-out: logD7.4 (single determination)
[6] = pH 7.4, estimated by HPLC-based method, pH 7.4, read-out: LogD 7.4
[7] = HEK‐293 cells overexpressing KV7.2/3
[8] = KV7.2/3 opening, ratio of EC50 values
[9] = HEP‐G2, MTT assay, 24 h exposure

SMILES	logD7.4 (single determination) ([1]; Table S7)	chromatographic logD [1, 5]	chromatographic logD [1, 6]	Ep.a. (anodic peak potential) [2]	LD25 (concentration to reduce cell viability by 25 %) ([3]; mouse, 24 h)	LD50 (concentration to reduce cell viability by 50 %) ([3]; mouse, 24 h)	LD25 (concentration to reduce cell viability by 25 %) ([4]; human, 24 h)	LD50 (concentration to reduce cell viability by 50 %) ([4]; human, 24 h)	EC50 (KV7.2/3 channel)	Emax (KV7.2/3 channel)	KV7.2/3 opening activity (in words) (KV7.2/3 channel; [7])	also measured
CCCC(=O)Nc1ccc(CNc2ccc(F)cc2)cc1C(F)(F)F.Cl [35 d, N ‐(4‐{[(4‐Fluorophenyl)amino]methyl}‐2‐(trifluoromethyl)phenyl)butyramide hydrochloride]	2.991	3	3	663 mV	>125 µM	>125 µM	75 ± 17 µM	>125 µM	362 ± 93 nM	156 ± 14%	–	–
CCCC(=O)Nc1ccc(CNc2ccc(C)cn2)cc1C [35 f, N ‐(2‐Methyl‐4‐{[(5‐methylpyridin‐2‐yl)amino]methyl}phenyl)butyramide]	2.263	2.29	2.3	850 mV	>125 µM	>125 µM	>125 µM	>125 µM	7860 ± 2170 nM	70 ± 9%	weakly active	–
CCOC(=O)Nc1ccc(C#Cc2ccccc2)nc1N [compound 21, Ethyl [2‐amino‐6‐(phenylethynyl)pyridin‐3‐yl]carbamate]	2.983	2.99	3	553 mV	63 ± 12 µM	>125 µM	>125 µM	>125 µM	> 20000 nM	–	–	EC50 (required concentration to reach half‐maximal KV7.2/3 channel opening activity) (KV7.2/3 channel; HEK‐293 cells overexpressing KV7.2/3, mean ± SD, at least three determinations, –[e] = inactive up to a concentration of 20 μM): –^[e]; Efficacy (KV7.2/3 channel; maximal fluorescence signal relative to flupirtine (100 %), HEK‐293, –[e] = inactive up to a concentration of 20 μM): –^[e]
CCOC(=O)Nc1ccc(CCc2ccc(F)cc2)nc1N [compound 7, Ethyl [2‐amino‐6‐(4‐fluorophenethyl)pyridin‐3‐yl]carbamate]	2.983	2.95	3	628 mV	25 ± 7 µM	>63 µM	27 ± 16 µM	>63 µM	> 10000 nM	–	clearly less active than flupirtine	–
Cc1cc(CNc2ccc(F)cc2)cnc1NC(=O)CC(C)(C)C [43 b, N ‐(5‐{[(4‐Fluorophenyl)amino]methyl}‐3‐methylpyridin‐2‐yl)‐3,3‐dimethylbutanamide]	3.039	3.03	3	663 mV	>125 µM	>125 µM	66 ± 27 µM	>125 µM	677 ± 419 nM	153 ± 12%	submicromolar activity	fold increase in potency compared to 43 a (KV7.2/3 channel; [8]): 7.2 fold
Cc1nc(CNc2ccc(F)cc2)ccc1NC(=O)OCC(C)C [compound 27, Isobutyl (6‐{[(4‐fluorophenyl)amino]methyl}‐2‐methylpyridin‐3‐yl)carbamate]	3.408	3.42	3.4	648 mV	76 ± 15 µM	>250 µM	136 ± 38 µM	>250 µM	4120 ± 3940 nM	94 ± 15%	–	–
CCOC(=O)Nc1ccc(NCc2ccc(F)cc2)cc1N [Ret, retigabine]	–	–	–	260 mV	–	–	–	–	249 ± 52 nM	119 ± 7%	–	LD25 (concentration to reduce cell viability by 25 %) ([3]; TAMH, MTT assay, 24 h exposure): >400 µM; LD50 (concentration to reduce cell viability by 50 %) ([3]; TAMH, MTT assay, 24 h exposure): >400 µM; LD50 (concentration to reduce cell viability by 50 %) ([3]; TAMH, MTT assay, 24 h exposure, listed as retigabine): above 400 μM; LD25 (concentration to reduce cell viability by 25 %) [4, 9]: 269 ± 166 µM; LD50 (concentration to reduce cell viability by 50 %) [4, 9]: >400 µM; LD50 (concentration to reduce cell viability by 50 %) ([4]; HEP‐G2, MTT assay, 24 h exposure, listed as retigabine): above 400 μM; fold increase in potency compared to flupirtine (KV7.2/3 channel; [8]): 7 fold
